Experimental data published in patent publication US7923464B2, “Benzimidazole derivatives and their use for modulating the GABAA receptor complex” (Neurosearch A/S, priority 2005, dated 2011).

What follows are compounds tested against benzodiazepine modulatory unit (GABAA receptor complex), labelled with 3H-flunitrazepam (assay: In vitro inhibition of 3H-flunitrazepam (3H-FNM) binding). Settings: cerebral cortex membranes from male Wistar rats; 3H-FNM 1 nM; 40 min at 2° C.
Parameters: species or system rat
Procedure: In Vitro Inhibition of ^3H-flunitrazepam (^3H-FNM) Binding
The GABA recognition site and the benzodiazepine modulatory unit can selectively be labelled with ^3H-flunitrazepam.
Preparations are performed at 0-4° C. unless otherwise indicated. Cerebral cortex from male Wistar rats (150-200 g) is homogenised for 5-10 sec in 20 ml Tris-HCl (30 mM, pH 7.4) using an Ultra-Turrax homogeniser. The suspension is centrifuged at 27,000×g for 15 min and the pellet is washed three times with buffer (centrifuged at 27,000×g for 10 min). The washed pellet is homogenized in 20 ml of buffer and incubated on a water bath (37° C.) for 30 min to remove endogenous GABA and then centrifuged for 10 min at 27,000×g. The pellet is then homogenized in buffer and centrifuged for 10 min at 27,000×g. The final pellet is resuspended in 30 ml buffer and the preparation is frozen and stored at −20° C.
The membrane preparation is thawed and centrifuged at 2° C. for 10 min at 27,000×g. The pellet is washed twice with 20 ml 50 mM Tris-citrate, pH 7.1 using an Ultra-Turrax homogeniser and centrifuged for 10 min at 27,000×g. The final pellet is resuspended in 50 mM Tris-citrate, pH 7.1 (500 ml buffer per g of original tissue), and then used for binding assays. Aliquots of 0.5 ml tissue are added to 25 μl of test solution and 25 μl of ^3H-FNM (1 nM, final concentration), mixed and incubated for 40 min at 2° C. Non-specific binding is determined using Clonazepam (1 μM, final concentration). After incubation the samples are added 5 ml of ice-cold buffer and poured directly onto Whatman GF/C glass fibre filters under suction and immediately washed with 5 ml ice-cold buffer. The amount of radioactivity on the filters is determined by conventional liquid scintillation counting. Specific binding is total binding minus non-specific binding.
Co is specific binding in control assays, and
Cx is the specific binding in the test assay.
(The calculations assume normal mass-action kinetics).

Row | SMILES | IC50
1 | COc1ccccc1-c1cccc(-n2cnc3cc([C@H](C)NC(C)=O)ccc32)c1 [Compound 12g, N-{(S)-1-[1-(2′-Methoxy-biphenyl-3-yl)-1H-benzoimidazol-5-yl]-ethyl}-acetamide] | 2.6 nM
2 | C[C@@H](N)c1ccc2c(c1)ncn2-c1cccc(-c2ccccc2C#N)c1 [Compound 12r, 3′-[5-((R)-1-Amino-ethyl)-benzoimidazol-1-yl]-biphenyl-2-carbonitrile] | 3.7 nM
3 | COc1ccccc1-c1cccc(-n2cnc3cc([C@@H](C)N)ccc32)c1 [Compound 12o, (R)-1-[1-(2′-Methoxy-biphenyl-3-yl)-1H-benzoimidazol-5-yl]-ethylamine] | 6.7 nM
4 | COc1ccccc1-c1cccc(-n2cnc3cc([C@@H](C)NC(C)=O)ccc32)c1 [Compound 12b, N-{(R)-1-[1-(2′-Methoxy-biphenyl-3-yl)-1H-benzoimidazol-5-yl]-ethyl}-acetamide] | 60 nM
5 | CC(N)c1ccc2c(c1)ncn2-c1cccc(-c2ccccc2)c1 (centres unmarked) [Compound 3a, 1-(1-Biphenyl-3-yl-1H-benzoimidazol-5-yl)-ethylamine] | 73 nM
